Assay results taken from patent publication US11548875B2, “Inhibitor compounds for male contraception” (University of Washington, priority 2018, dated 2023).
Where a name gives a salt, the structure may show the parent alone. Read-outs that look alike come from different tables or passages of the source. Values belong to the molecule of their own block, whether it stands above or below them.

Key:
ALDH2 = biological target: T1, ALDH2 (Homo sapiens, UniProt P05091); test: Purified ALDH2 assay with propanal, NADH fluorescence; assay type: biochemical; settings: purified enzyme
T1 construct: histidine-tag (N); made in house; host or cells: bacterial expression (pETite vector, IPTG induction)
T1 sequence (P05091 18-517): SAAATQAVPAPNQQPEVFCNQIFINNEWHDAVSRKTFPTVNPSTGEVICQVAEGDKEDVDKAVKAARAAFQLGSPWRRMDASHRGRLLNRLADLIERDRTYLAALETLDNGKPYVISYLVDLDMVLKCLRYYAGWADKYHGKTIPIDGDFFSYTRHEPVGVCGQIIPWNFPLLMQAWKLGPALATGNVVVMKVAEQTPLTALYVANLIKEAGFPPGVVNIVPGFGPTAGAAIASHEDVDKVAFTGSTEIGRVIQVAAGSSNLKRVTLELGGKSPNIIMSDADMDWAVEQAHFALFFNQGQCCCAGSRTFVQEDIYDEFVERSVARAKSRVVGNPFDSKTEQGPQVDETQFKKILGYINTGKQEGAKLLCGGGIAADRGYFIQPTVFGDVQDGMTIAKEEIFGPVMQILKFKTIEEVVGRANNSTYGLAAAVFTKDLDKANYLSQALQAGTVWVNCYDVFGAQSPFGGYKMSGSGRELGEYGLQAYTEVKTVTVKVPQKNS
How it was run: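 His-tagged human ALDH2 expressed in bacteria and purified. 2 μg enzyme incubated with 20 μM propanal and varying inhibitor concentrations at room temperature. Activity read as NADH fluorescence (Ex 350/Em 460 nm), with initial velocity from two consecutive readings over 1 minute.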

ALDH1A2 = biological target: T2, ALDH1A2 (Homo sapiens, UniProt O94788); test: Cell-based enzyme assay, retinoic acid production in ALDH1A2/H1299 cells
T2 sequence (O94788 1-518): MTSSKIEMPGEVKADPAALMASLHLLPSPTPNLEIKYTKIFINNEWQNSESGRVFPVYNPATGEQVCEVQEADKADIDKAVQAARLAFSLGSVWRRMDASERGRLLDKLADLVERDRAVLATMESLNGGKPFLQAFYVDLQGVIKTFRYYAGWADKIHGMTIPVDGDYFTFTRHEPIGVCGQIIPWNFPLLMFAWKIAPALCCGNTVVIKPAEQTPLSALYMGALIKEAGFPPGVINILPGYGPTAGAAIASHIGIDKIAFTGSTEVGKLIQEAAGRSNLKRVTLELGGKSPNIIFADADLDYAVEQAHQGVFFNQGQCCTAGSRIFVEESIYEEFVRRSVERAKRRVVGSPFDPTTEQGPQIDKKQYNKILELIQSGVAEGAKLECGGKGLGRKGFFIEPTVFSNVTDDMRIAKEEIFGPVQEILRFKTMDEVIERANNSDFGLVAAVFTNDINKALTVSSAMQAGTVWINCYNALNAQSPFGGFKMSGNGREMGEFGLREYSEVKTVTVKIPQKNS
How it was run: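 ALDH1A1- or ALDH1A2-stably transfected H1299 cells grown to confluence, then treated 20 h in serum-free RPMI-1640 with 2 μM all-trans-retinal plus varying inhibitor concentrations at 37 °C. Retinoic acid in cells and media quantified; inhibition from RA levels with vs without inhibitor.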

Molecule: CS(=O)(=O)c1ccc(-c2nn(-c3ccc(OC(F)(F)F)cc3)cc2C(=O)Nc2cccc(F)c2)cc1 [Compound 258, N-(3-Fluorophenyl)-1-(4-trifluoromethoxypheny)-3-[4-(methylsulfonyl)phenyl]-1H-pyrazole-4-carboxamide]
- IC50 (ALDH2): 100 µM
- EC50 (ALDH1A2; cell-based): 0.051 µM

Molecule: CS(=O)(=O)c1ccc(-c2nn(-c3ccc(Cl)cc3)cc2C(=O)Nc2ccccc2O)cc1 [Compound 233, N-(2-Hydroxyphenyl)-3-[4-(methylsulfonyl)phenyl]-1-(4-chloropheny)-1H-pyrazole-4-carboxamide]
- IC50 (ALDH2): 87.2 µM
- EC50 (ALDH1A2; cell-based): 0.055 µM

Molecule: CS(=O)(=O)c1ccc(-c2nn(-c3ccc(C#N)cc3)cc2C(=O)Nc2cccc(C(F)(F)F)c2)cc1 [Compound 262, 1-(4-Cyanophenyl)-N-(3-trifluoromethylphenyl)-3-[4-(methylsulfonyl)phenyl]-1H-pyrazole-4-carboxamide]
- IC50 (ALDH2): 16.7 µM
- EC50 (ALDH1A2; cell-based): 0.016 µM

Molecule: CS(=O)(=O)c1ccc(-c2nn(-c3ccccc3)cc2C(=O)Nc2cccc(F)c2)cc1 [Compound 178, 3-(4-(Methylsulfonyl)phenyl)-N-(3-fluorophenyl)-1-phenyl-1H-pyrazole-4-carboxamide]
- IC50 (ALDH2): 20.9 µM
- EC50 (ALDH1A2; cell-based): 0.065 µM

Molecule: 3-{4-[(Chloroacetyl)amino]phenyl}-N-(3-fluorophenyl)-1-phenyl-1H-pyrazole-4-carboxamide [Compound 294]
- IC50 (ALDH2): 24.4 µM
- EC50 (ALDH1A2; cell-based): < 0.005 µM

Molecule: CS(=O)(=O)c1ccc(-c2nn(-c3ccccc3)cc2C(=O)Nc2cccc(F)c2O)cc1 [Compound 231, N-(3-Fluoro-2-hydroxyphenyl)-3-[4-(methylsulfonyl)phenyl]-1-phenyl-1H-pyrazole-4-carboxamide]
- IC50 (ALDH2): 67.3 µM
- EC50 (ALDH1A2; cell-based): 0.069 µM

Molecule: CS(=O)(=O)c1ccc(-c2nn(-c3cccc(C#N)c3)cc2C(=O)Nc2ccc(F)c(F)c2)cc1 [Compound 269, 1-(3-Cyanophenyl)-N-(3,4-difluorophenyl)-3-[4-(methylsulfonyl)phenyl]-1H-pyrazole-4-carboxamide]
- IC50 (ALDH2): 67.7 µM
- EC50 (ALDH1A2; cell-based): 0.045 µM

Molecule: CCOc1ccsc1C(=O)N1CCN(c2ccc([N+](=O)[O-])c(N3CCCC3)c2)CC1 [Compound 326, {4-[4-Nitro-3-(pyrrolidin-1-yl)phenyl]piperazin-1-yl}(3-ethoxythiophen-2-yl)methanone]
- IC50 (ALDH2): 97.3 µM
- EC50 (ALDH1A2): 0.11 µM

Molecule: CS(=O)(=O)c1ccc(-c2nn(-c3ccccc3)cc2C(=O)Nc2cccc(O)c2)cc1 [Compound 211, 3-(4-(Methylsulfonyl)phenyl)-N-(3-hydroxyphenyl)-1-phenyl-1H-pyrazole-4-carboxamide]
- IC50 (ALDH2): 15.5 µM
- EC50 (ALDH1A2; cell-based): 0.12 µM

Molecule: CCc1ccc(C(=O)N2CCN(c3ccc([N+](=O)[O-])c(N4CCCC4)c3)CC2)s1 [Compound 323, {4-[4-Nitro-3-(pyrrolidin-1-yl)phenyl]piperazin-1-yl}(5-ethylthiophen-2-yl)methanone]
- IC50 (ALDH2): 52 µM
- EC50 (ALDH1A2): 0.457 µM

Molecule: CS(=O)(=O)c1ccc(-c2nn(-c3cccc(C#N)c3)cc2C(=O)Nc2cccc(F)c2)cc1 [Compound 268, 1-(3-Cyanophenyl)-N-(3-fluorophenyl)-3-[4-(methylsulfonyl)phenyl]-1H-pyrazole-4-carboxamide]
- IC50 (ALDH2): 83.7 µM
- EC50 (ALDH1A2; cell-based): 0.026 µM

Other lines, results leading:

- IC50 (ALDH2): 58.3 µM
- EC50 (ALDH1A2): 0.437 µM
Molecule: CC(=O)Nc1ccsc1C(=O)N1CCN(c2ccc([N+](=O)[O-])c(N3CCCC3)c2)CC1 [Compound 332]

- IC50 (ALDH2): 3.5 µM
- EC50 (ALDH1A2): 0.7 µM
Molecule: Cn1cccc1C(=O)N1CCN(c2ccc(NC(=O)CCl)c(N3CCCC3)c2)CC1 [Compound 372, 1-[4-(4-N-Chloroacetyl-3-(pyrrolidin-1-yl)phenyl]piperazin-1-yl](1-methyl-1H-pyrrol-2-yl)methanone]

- IC50 (ALDH2): 86.4 µM
- EC50 (ALDH1A2): < 0.5 µM
Molecule: COc1ccsc1C(=O)N1CCN(c2ccc([N+](=O)[O-])c(N3CCCC3)c2)CC1 [Compound 329, {4-[4-Nitro-3-(pyrrolidin-1-yl)phenyl]piperazin-1-yl}(3-methoxythiophen-2-yl)methanone]

- IC50 (ALDH2): 48.6 µM
- EC50 (ALDH1A2): < 0.5 µM
Molecule: O=C(c1ccc[nH]1)N1CCN(c2ccc([N+](=O)[O-])c(N3CCCC3)c2)CC1 [Compound 344, {4-[4-Nitro-3-(pyrrolidin-1-yl)phenyl]piperazin-1-yl}(1H-pyrrol-2-yl)methanone]

- IC50 (ALDH2): > 100 µM
- EC50 (ALDH1A2): 0.505 µM
Molecule: O=C(c1cccc(Cl)c1)N1CCN(c2ccc([N+](=O)[O-])c(N3CCCC3)c2)CC1 [Compound 341, 3-Chlorophenyl-1-{4-[4-nitro-3-(pyrrolidin-1-yl)phenyl]piperazin-1-yl}methanone]

- IC50 (ALDH2): 24.9 µM
- EC50 (ALDH1A2): 0.121 µM
Molecule: Nc1ccsc1C(=O)N1CCN(c2ccc([N+](=O)[O-])c(N3CCCC3)c2)CC1 [Compound 331, {4-[4-Nitro-3-(pyrrolidin-1-yl)phenyl]piperazin-1-yl}(3-aminothiophen-2-yl)methanone hydrochloride]

- IC50 (ALDH2): 79.8 µM
- EC50 (ALDH1A2): 0.862 µM
Molecule: Cc1cc(C(=O)N2CCN(c3ccc([N+](=O)[O-])c(N4CCCC4)c3)CC2)sc1C [Compound 327, {4-[4-Nitro-3-(pyrrolidin-1-yl)phenyl]piperazin-1-yl}(4,5-dimethylthiophen-2-yl)methanone]

- IC50 (ALDH2): 61.6 µM
- EC50 (ALDH1A2): 0.35 µM
Molecule: CC(=O)n1cccc1C(=O)N1CCN(c2ccc([N+](=O)[O-])c(N3CCCC3)c2)CC1 [Compound 347, {4-[4-Nitro-3-(pyrrolidin-1-yl)phenyl]piperazin-1-yl}(1-acetyl-pyrrol-2yl)methanone]

- IC50 (ALDH2): > 100 µM
- EC50 (ALDH1A2): 0.966 µM
Molecule: O=C(c1ccc(Cl)cc1)N1CCN(c2ccc([N+](=O)[O-])c(N3CCCC3)c2)CC1 [Compound 342, 4-Chlorophenyl-1-{4-[4-nitro-3-(pyrrolidin-1-yl)phenyl]piperazin-1-yl}methanone]

- IC50 (ALDH2): > 100 µM
- EC50 (ALDH1A2): 1.19 µM
Molecule: COc1ccc(C(=O)N2CCN(c3ccc([N+](=O)[O-])c(N4CCCC4)c3)CC2)cc1 [Compound 345, 4-Methoxyphenyl-1-{4-[4-nitro-3-(pyrrolidin-1-yl)phenyl]piperazin-1-yl}methanone]

- IC50 (ALDH2): > 100 µM
- EC50 (ALDH1A2): 0.377 µM
Molecule: O=C(c1ccc(F)s1)N1CCN(c2ccc([N+](=O)[O-])c(N3CCCC3)c2)CC1 [Compound 334, {4-[4-Nitro-3-(pyrrolidin-1-yl)phenyl]piperazin-1-yl}(5-fluorothiophen-2-yl)methanone]

- IC50 (ALDH2): 97.5 µM
- EC50 (ALDH1A2): < 0.5 µM
Molecule: Cn1cccc1C(=O)N1CCN(c2ccc([N+](=O)[O-])c(N3CCCC3)c2)CC1 [Compound 343, [4-(4-Nitro-3-(pyrrolidin-1-yl)phenyl)piperazin-1-yl](1-methyl-1H-pyrrol-2-yl)methanone]

- IC50 (ALDH2): > 80 µM
- EC50 (ALDH1A2): > 5 µM
Molecule: Cn1cccc1C(=O)N1CCN(c2ccc(NC(=O)C(Cl)Cl)c(N3CCCC3)c2)CC1 [Compound 367, 1-[4-(4-N-Dichloroacetyl-3-(pyrrolidin-1-yl)phenyl]piperazin-1-yl](1-methyl-1H-pyrrol-2-yl)methanone]

- IC50 (ALDH2): > 100 µM
- EC50 (ALDH1A2): 1.42 µM
Molecule: CN(C)c1ccc(C(=O)N2CCN(c3ccc([N+](=O)[O-])c(N4CCCC4)c3)CC2)cc1 [Compound 346, 4-Dimethylaminophenyl-1-{4-[4-nitro-3-(pyrrolidin-1-yl)phenyl]piperazin-1-yl}methanone]
